Laboratory results: patent US8889708B2 (Boehringer Ingelheim International GmbH, priority 2013, dated 2014)

Tests used:
[1] = Metabolic stability with human liver microsomes; format: in vitro ADME; settings: pH 7.6; pooled human liver microsomes, 37° C., 1 μM test compound, 1 mg/ml protein, NADPH; read-out: In vitro stability in human liver microsome incubations t½
Method: Determination of Metabolic Stability with Human Liver Microsomes
The metabolic degradation of the test compound is assayed at 37° C. with pooled human liver microsomes. The final incubation volume of 100 μl per time point contains TRIS buffer pH 7.6 (0.1 M), magnesium chloride (5 mM), microsomal protein (1 mg/ml) and the test compound at a final concentration of 1 μM. Following a short preincubation period at 37° C., the reactions are initiated by addition of beta-nicotinamide adenine dinucleotide phosphate, reduced form (NADPH, 1 mM) and terminated by transferring an aliquot into acetonitrile after different time points. Additionally, the NADPH-independent degradation is monitored in incubations without NADPH, terminated at the last time point. The [%] remaining test compound after NADPH independent incubation is reflected by the parameter c(control) (metabolic stability). The quenched incubations are pelleted by centrifugation (10,000 g, 5 min). An aliquot of the supernatant is assayed by LC-MS/MS for the amount of parent compound.
The half-life (t½ INVITRO) is determined by the slope of the semilogarithmic plot of the concentration-time profile. The intrinsic clearance (CL_[…]) is calculated by considering the amount of protein in the incubation: CL_[…][μl/min/mg protein]=(ln 2/(half-life[min]*protein content[mg/ml]))*1,000.

recombinant human DPPI = recombinant human DPPI (Homo sapiens (Human), UniProt P53634); assay: Inhibition of Human DPPI (Cathepsin C); format: biochemical; settings: substrate Gly-Arg-AMC, 30 min room temperature
recombinant human DPPI, sequence (P53634 231-394): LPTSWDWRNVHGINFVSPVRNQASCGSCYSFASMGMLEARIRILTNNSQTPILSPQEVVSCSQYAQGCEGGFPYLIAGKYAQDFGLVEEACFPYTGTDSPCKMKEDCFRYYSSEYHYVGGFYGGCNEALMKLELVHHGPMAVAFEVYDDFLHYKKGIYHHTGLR
recombinant human DPPI, sequence (P53634 395-463): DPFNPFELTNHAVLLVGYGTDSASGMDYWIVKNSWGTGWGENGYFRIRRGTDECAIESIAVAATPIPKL
recombinant human DPPI, sequence (P53634 25-134): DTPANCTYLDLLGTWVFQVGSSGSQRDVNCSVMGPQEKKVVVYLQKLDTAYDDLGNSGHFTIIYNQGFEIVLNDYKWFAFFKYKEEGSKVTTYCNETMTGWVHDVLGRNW
Text: Inhibition of Human DPPI (Cathepsin C)
Materials: Microtiterplates (Optiplate-384 F) were purchased from PerkinElmer (Prod. No. 6007270). The substrate Gly-Arg-AMC was from Biotrend (Prod.-No. 808756 Custom peptide). Bovine serum albumin (BSA; Prod. No. A3059) and Dithiothreitol (DTT; Prod. No D0632) were from Sigma. TagZyme buffer was from Riedel-de-Haen (Prod.-No. 04269), NaCl was from Merck (Prod.-No. 1.06404.1000) and morpholinoethane sulfonic acid (MES), was from Serva (Prod.-No. 29834). The DPP1 inhibitor Gly-Phe-DMK was purchased from MP Biomedicals (Prod.-No. 03DK00625). The recombinant human DPPI was purchased from Prozymex. All other materials were of highest grade commercially available.
The following buffers were used: MES buffer: 25 mM MES, 50 mM NaCl, 5 mM DTT, adjusted to pH 6.0, containing 0.1% BSA; TAGZyme Buffer: 20 mM NaH2PO4, 150 mM NaCl adjusted to pH 6.0 with HCl
The recombinant human DPPI was diluted in TAGZyme buffer to 1 U/ml (38.1 μg/ml, respectively), and then activated by mixing in a 1:2 ratio with a Cysteamine aqueous solution (2 mM) and incubating for 5 min at room temperature.
Five uL test compound (final concentration 0.1 nM to 100 μM) in aqua bidest (containing 4% DMSO, final DMSO concentration 1%) were mixed with 10 μL of DPPI in MES buffer (final concentration 0.0125 ng/μL) and incubated for 10 min. Then, 5 μL of substrate in MES buffer (final concentration 50 μM) were added. The microtiter plates were then incubated at room temperature for 30 min. Then, the reaction was stopped by adding 10 μL of Gly-Phe-DMK in MES-buffer (final concentration 1 μM). The fluorescence in the wells was determined using a Molecular Devices SpectraMax M5 Fluorescence Reader (Ex 360 nm, Em 460 nm) or an Envision Fluorescence Reader (Ex 355 nm, Em 460 nm).
Each assay microtiter plate contained wells with vehicle controls (1% DMSO in bidest+0.075% BSA) as reference for non-inhibited enzyme activity (100% Ctl; high values) and wells with inhibitor (Gly-Phe-DMK, in bidest+1% DMSO+0.075% BSA, final concentration 1 μM) as controls for background fluorescence (0% Ctl; low values).
The analysis of the data was performed by calculating the percentage of fluorescence in the presence of test compound in comparison to the fluorescence of the vehicle control after subtracting the background fluorescence using the following formula: (RFU(sample)−RFU(background))*100/(RFU(control)−RFU(background))
Data from these calculations were used to generate IC50 values for inhibition of DPPI, respectively.

SMILES	half-life at 1 μM [1]	IC50 (recombinant human DPPI)
CN1C(=O)Cc2ccc(-c3ccc(C[C@@H](C#N)NC(=O)C45CCC(CC4)CN5)cc3)cc21 [Example 2]	> 2.17 h	17.1 nM
CN1Cc2cc(-c3ccc(C[C@@H](C#N)NC(=O)C45CCC(CC4)CN5)cc3)ccc2C1=O [Example 4]	> 2.17 h	50.1 nM
CS(=O)(=O)c1ccc(-c2ccc(C[C@@H](C#N)NC(=O)C34CCC(CC3)CN4)c(F)c2)cc1 [Example 21, N-[(1S)-1-cyano-2-[2-fluoro-4-(4-methanesulfonylphenyl)phenyl]ethyl]-2-azabicyclo[2.2.2]octane-1-carboxamide]	> 2.17 h	17 nM
N#C[C@H](Cc1ccc(-c2ccc3c(c2)CCNC3=O)cc1F)NC(=O)C12CCC(CC1)CN2 [Example 22]	> 2.17 h	6.8 nM
N#C[C@H](Cc1ccc(-c2ccc3c(c2)NC(=O)C3)cc1F)NC(=O)C12CCC(CC1)CN2 [Example 23]	> 2.17 h	6.6 nM
COCCN1C(=O)Cc2ccc(-c3ccc(C[C@@H](C#N)NC(=O)C45CCC(CC4)CN5)c(F)c3)cc21 [Example 26]	> 2.17 h	4.3 nM
CC1(C)OC(=O)c2ccc(-c3ccc(C[C@@H](C#N)NC(=O)C45CCC(CC4)CN5)c(F)c3)cc21 [Example 27]	> 2.17 h	2.2 nM
CN1C(=O)Cc2ccc(-c3ccc(C[C@@H](C#N)NC(=O)C45CCC(CC4)CN5)c(F)c3)cc21 [Example 28]	> 2.17 h	4.9 nM
N#C[C@H](Cc1ccc(-c2csc(C(N)=O)c2)cc1F)NC(=O)C12CCC(CC1)CN2 [Example 31]	> 2.17 h	4.3 nM
